Assay results as given in ChEMBL document CHEMBL5325403, “Benzenesulfonyl thiazoloimines as unique multitargeting antibacterial agents towards Enterococcus faecalis” (Eur J Med Chem, 2023).
Values after ≈ are worked out from the molar mass of the structure shown.

Columns and labels:
Type in all cases: functional
Staphylococcus aureus [1] = assay: Antibacterial activity against Staphylococcus aureus assessed as inhibition of bacterial growth by continuous dilution method
Escherichia coli [2] = assay: Antibacterial activity against Escherichia coli ATCC 25922 assessed as inhibition of bacterial growth by continuous dilution method
Pseudomonas aeruginosa [3] = assay: Antibacterial activity against Pseudomonas aeruginosa assessed as inhibition of bacterial growth by continuous dilution method
Staphylococcus aureus [4] = assay: Antibacterial activity against Staphylococcus aureus ATCC 25923 assessed as inhibition of bacterial growth by continuous dilution method
Pseudomonas aeruginosa [5] = assay: Antibacterial activity against Pseudomonas aeruginosa ATCC 27853 assessed as inhibition of bacterial growth by continuous dilution method
Enterococcus faecalis = assay: Antibacterial activity against Enterococcus faecalis assessed as inhibition of bacterial growth by continuous dilution method
Acinetobacter baumannii = assay: Antibacterial activity against Acinetobacter baumannii assessed as inhibition of bacterial growth by continuous dilution method
Escherichia coli [6] = assay: Antibacterial activity against Escherichia coli assessed as inhibition of bacterial growth by continuous dilution method
Staphylococcus aureus [7] = assay: Antibacterial activity against Staphylococcus aureus ATCC 29213 assessed as inhibition of bacterial growth by continuous dilution method
Klebsiella pneumoniae = assay: Antibacterial activity against Klebsiella pneumoniae assessed as inhibition of bacterial growth by continuous dilution method
Staphylococcus aureus [8] = assay: Antibacterial activity against methicillin-resistant Staphylococcus aureus N315 assessed as inhibition of bacterial growth by continuous dilution method

Row | Compound | MIC (Staphylococcus aureus [1]) | MIC (Escherichia coli [2]) | MIC (Pseudomonas aeruginosa [3]) | MIC (Staphylococcus aureus [4]) | MIC (Pseudomonas aeruginosa [5]) | MIC (Enterococcus faecalis) | MIC (Acinetobacter baumannii) | MIC (Escherichia coli [6]) | MIC (Staphylococcus aureus [7]) | MIC (Klebsiella pneumoniae) | MIC (Staphylococcus aureus [8])
1 | C#CCO/N=C(/CS(=O)(=O)c1ccc(NC(C)=O)cc1)c1nccs1 | 64 µg/mL (≈ 170 µM) | 16 µg/mL (≈ 42.4 µM) | 64 µg/mL (≈ 170 µM) | 64 µg/mL (≈ 170 µM) | 64 µg/mL (≈ 170 µM) | 64 µg/mL (≈ 170 µM) | 128 µg/mL (≈ 339 µM) | 32 µg/mL (≈ 84.8 µM) | 64 µg/mL (≈ 170 µM) | 32 µg/mL (≈ 84.8 µM) | 32 µg/mL (≈ 84.8 µM)
2 | CC(=O)Nc1ccc(S(=O)(=O)/C(=C\c2ccc([N+](=O)[O-])cc2)C(=O)c2nccs2)cc1 | 256 µg/mL (≈ 560 µM) | 64 µg/mL (≈ 140 µM) | 64 µg/mL (≈ 140 µM) | 256 µg/mL (≈ 560 µM) | 64 µg/mL (≈ 140 µM) | 128 µg/mL (≈ 280 µM) | 256 µg/mL (≈ 560 µM) | 32 µg/mL (≈ 69.9 µM) | 256 µg/mL (≈ 560 µM) | 128 µg/mL (≈ 280 µM) | 128 µg/mL (≈ 280 µM)
3 | CC(=O)Nc1ccc(S(=O)(=O)C/C(=N/OCC#N)c2nccs2)cc1 | 64 µg/mL (≈ 169 µM) | 32 µg/mL (≈ 84.6 µM) | 128 µg/mL (≈ 338 µM) | 128 µg/mL (≈ 338 µM) | 64 µg/mL (≈ 169 µM) | 64 µg/mL (≈ 169 µM) | 256 µg/mL (≈ 676 µM) | 32 µg/mL (≈ 84.6 µM) | 64 µg/mL (≈ 169 µM) | 64 µg/mL (≈ 169 µM) | 64 µg/mL (≈ 169 µM)
4 | C=CCO/N=C(/CS(=O)(=O)c1ccc(NC(C)=O)cc1)c1nccs1 | 128 µg/mL (≈ 337 µM) | 16 µg/mL (≈ 42.2 µM) | 128 µg/mL (≈ 337 µM) | 32 µg/mL (≈ 84.3 µM) | 64 µg/mL (≈ 169 µM) | 32 µg/mL (≈ 84.3 µM) | 128 µg/mL (≈ 337 µM) | 64 µg/mL (≈ 169 µM) | 64 µg/mL (≈ 169 µM) | 64 µg/mL (≈ 169 µM) | 64 µg/mL (≈ 169 µM)
5 | CC(=O)Nc1ccc(S(=O)(=O)/C(=C\c2ccc(Cl)cc2Cl)C(=O)c2nccs2)cc1 | 128 µg/mL (≈ 266 µM) | 256 µg/mL (≈ 532 µM) | 128 µg/mL (≈ 266 µM) | 64 µg/mL (≈ 133 µM) | 128 µg/mL (≈ 266 µM) | 128 µg/mL (≈ 266 µM) | 256 µg/mL (≈ 532 µM) | 256 µg/mL (≈ 532 µM) | 256 µg/mL (≈ 532 µM) | 128 µg/mL (≈ 266 µM) | 128 µg/mL (≈ 266 µM)
6 | CCCCO/N=C(/CS(=O)(=O)c1ccc(N)cc1)c1nccs1 | 32 µg/mL (≈ 90.5 µM) | 32 µg/mL (≈ 90.5 µM) | 32 µg/mL (≈ 90.5 µM) | 32 µg/mL (≈ 90.5 µM) | 32 µg/mL (≈ 90.5 µM) | 16 µg/mL (≈ 45.3 µM) | 64 µg/mL (≈ 181 µM) | 32 µg/mL (≈ 90.5 µM) | 64 µg/mL (≈ 181 µM) | 16 µg/mL (≈ 45.3 µM) | 64 µg/mL (≈ 181 µM)
7 | CC(=O)Nc1ccc(S(=O)(=O)C/C(=N/OCc2ccc(Cl)cc2)c2nccs2)cc1 | 128 µg/mL (≈ 276 µM) | 8 µg/mL (≈ 17.2 µM) | 64 µg/mL (≈ 138 µM) | 64 µg/mL (≈ 138 µM) | 32 µg/mL (≈ 69 µM) | 64 µg/mL (≈ 138 µM) | 128 µg/mL (≈ 276 µM) | 64 µg/mL (≈ 138 µM) | 64 µg/mL (≈ 138 µM) | 32 µg/mL (≈ 69 µM) | 32 µg/mL (≈ 69 µM)
8 | CCCCCCO/N=C(/CS(=O)(=O)c1ccc(N)cc1)c1nccs1 | 32 µg/mL (≈ 83.9 µM) | 16 µg/mL (≈ 41.9 µM) | 16 µg/mL (≈ 41.9 µM) | 64 µg/mL (≈ 168 µM) | 16 µg/mL (≈ 41.9 µM) | 8 µg/mL (≈ 21 µM) | 64 µg/mL (≈ 168 µM) | 16 µg/mL (≈ 41.9 µM) | 64 µg/mL (≈ 168 µM) | 32 µg/mL (≈ 83.9 µM) | 128 µg/mL (≈ 335 µM)
9 | CCCCCCCCO/N=C(/CS(=O)(=O)c1ccc(N)cc1)c1nccs1 | 128 µg/mL (≈ 313 µM) | 32 µg/mL (≈ 78.1 µM) | 64 µg/mL (≈ 156 µM) | 32 µg/mL (≈ 78.1 µM) | 16 µg/mL (≈ 39.1 µM) | 32 µg/mL (≈ 78.1 µM) | 64 µg/mL (≈ 156 µM) | 32 µg/mL (≈ 78.1 µM) | 64 µg/mL (≈ 156 µM) | 32 µg/mL (≈ 78.1 µM) | 64 µg/mL (≈ 156 µM)
10 | CC(=O)Nc1ccc(S(=O)(=O)C/C(=N/NC(=O)c2ccccc2)c2nccs2)cc1 | 128 µg/mL (≈ 289 µM) | 64 µg/mL (≈ 145 µM) | 128 µg/mL (≈ 289 µM) | 32 µg/mL (≈ 72.3 µM) | 4 µg/mL (≈ 9.04 µM) | 32 µg/mL (≈ 72.3 µM) | 256 µg/mL (≈ 579 µM) | 16 µg/mL (≈ 36.2 µM) | 256 µg/mL (≈ 579 µM) | 256 µg/mL (≈ 579 µM) | 256 µg/mL (≈ 579 µM)
11 | CCO/N=C(/CS(=O)(=O)c1ccc(N)cc1)c1nccs1 | 256 µg/mL (≈ 787 µM) | 32 µg/mL (≈ 98.3 µM) | 64 µg/mL (≈ 197 µM) | 64 µg/mL (≈ 197 µM) | 32 µg/mL (≈ 98.3 µM) | 64 µg/mL (≈ 197 µM) | 128 µg/mL (≈ 393 µM) | 16 µg/mL (≈ 49.2 µM) | 64 µg/mL (≈ 197 µM) | 32 µg/mL (≈ 98.3 µM) | 256 µg/mL (≈ 787 µM)
12 | CC(=O)Nc1ccc(S(=O)(=O)C/C(=N/O)c2nccs2)cc1 | 128 µg/mL (≈ 377 µM) | 64 µg/mL (≈ 189 µM) | 128 µg/mL (≈ 377 µM) | 128 µg/mL (≈ 377 µM) | 64 µg/mL (≈ 189 µM) | 64 µg/mL (≈ 189 µM) | 256 µg/mL (≈ 754 µM) | 64 µg/mL (≈ 189 µM) | 64 µg/mL (≈ 189 µM) | 64 µg/mL (≈ 189 µM) | 64 µg/mL (≈ 189 µM)
13 | C#CCO/N=C(/CS(=O)(=O)c1ccc(N)cc1)c1nccs1 | 64 µg/mL (≈ 191 µM) | 32 µg/mL (≈ 95.4 µM) | 64 µg/mL (≈ 191 µM) | 32 µg/mL (≈ 95.4 µM) | 32 µg/mL (≈ 95.4 µM) | 64 µg/mL (≈ 191 µM) | 64 µg/mL (≈ 191 µM) | 32 µg/mL (≈ 95.4 µM) | 64 µg/mL (≈ 191 µM) | 32 µg/mL (≈ 95.4 µM) | 64 µg/mL (≈ 191 µM)
14 | CC(=O)Nc1ccc(S(=O)(=O)/C(=C\c2nccs2)C(=O)c2nccs2)cc1 | 32 µg/mL (≈ 76.3 µM) | 128 µg/mL (≈ 305 µM) | 128 µg/mL (≈ 305 µM) | 4 µg/mL (≈ 9.53 µM) | 128 µg/mL (≈ 305 µM) | 16 µg/mL (≈ 38.1 µM) | 128 µg/mL (≈ 305 µM) | 16 µg/mL (≈ 38.1 µM) | 64 µg/mL (≈ 153 µM) | 16 µg/mL (≈ 38.1 µM) | 8 µg/mL (≈ 19.1 µM)
